{
  "source": "paper PMC10683482",
  "about": "“Offsetting Low-Affinity Carbohydrate Binding with Covalency to Engage Sugar-Specific Proteins for Tumor-Immune Proximity Induction” (ACS Central Science, 2023)",
  "system": "PSMA-expressing target cells (Hek-PSMA, LNCaP, C4-2)",
  "test": "ADCP assay with anti-23F and U937 monocytes",
  "assay_type": "cell-based, human",
  "conditions": "8 μM compound with 4 μM anti-23F 24 h; 1 h, 37 °C; flow cytometry",
  "protocol": "Figure 5 Functional analysis of PSMA-targeting SuFEx cARMs. A. Chemical structure of the functional GU cARM molecule used for PSMA targeting. B. Confocal (top) and fluorescent imaging (bottom) of Hek-PSMA cells treated with anti-23F only or anti-23F antibody pre-incubated with rhamnose-SO2F-cARM 14. C. Jurkat activation assay evaluation of 14 directly in polyclonal human IgG. Each cARM/ARM (9 μM) was incubated with polyclonal human IgG (230 μM) overnight and then added to pre-plated Hek-P cells (50,000 cells). To this cell solution, luciferase expressing jurkat cells were added and incubated for 24 hours. Activation of jurkat cells was determined by measuring luciferase expression with a BioGlo assay kit. D. ADCP assays using various PSMA-expressing model and bonafide cancer cell lines. Each cARM/ARM (8 μM) was incubated with anti-23F (4 μM) overnight followed by addition to target cells (150,000 cells). Next, IFN-γ activated monocytes (150,000 cells) were added and incubated for 1 hour at 37 °C. ADCP was determined via flow cytometry.\nFinally, the capacity of Rha-cARMs to induce ADCP of multiple target cell lines (varying in PSMA expression) was evaluated. ADCP represents a major mode of antitumor monocyte/macrophage immunotherapeutic function, also invoked by several FDA-approved monoclonal antibody therapies. […]",
  "data": [
    {"smiles": "C[C@@H]1O[C@@H](OCc2cn(CCc3cn(C(=O)OCCNC(=O)CCCCCNC(=O)CCCCCNC(=O)CCCCCNC(=O)NCCCC[C@H](NC(=O)N[C@@H](CCC(=O)O)C(=O)O)C(=O)O)cn3)nn2)[C@H](O)[C@H](O)[C@H]1O", "note": "[compound 10]", "values": [
      {"measurement": "induction of ADCP", "result": "nonfunctional"}
    ]},
    {"smiles": "C[C@@H]1O[C@@H](OCc2cn(CCCNC(=O)OCCNC(=O)CCCCCNC(=O)CCCCCNC(=O)CCCCCNC(=O)NCCCC[C@H](NC(=O)N[C@@H](CCC(=O)O)C(=O)O)C(=O)O)nn2)[C@H](O)[C@H](O)[C@H]1O", "note": "[compound 11]", "values": [
      {"measurement": "induction of ADCP", "result": "failure"}
    ]}
  ]
}
